{"source": "paper PMC5503534", "about": "“Stable aneuploid tumors cells are more sensitive to TTK inhibition than chromosomally unstable cell lines” (Oncotarget, 2017)", "key": {"[1]": {"system": "OVCAR-3 ovary adenocarcinoma cell line", "assay": "Cell proliferation assay (ATPlite), OVCAR-3", "format": "cell-based, human", "conditions": "5 day proliferation assay", "experimental": "(§1) Cell proliferation assays were carried out as described using ATPlite 1step™ (Perkin Elmer, Groningen, The Netherlands). Exposure time was 72 or 120 hours as indicated in the Legends to the Figures. Percentage growth was calculated, relative to the growth of unexposed cells, and relative IC50s were fitted using a four-parameter logistics curve (XLfit 5.3, IDBS). For Figure 4A and 7 dose response curves were redrawn in Prism. To compare the inhibitory potency of compounds in proliferation assays with HCT 116 parental and tetraploid clones, pIC50 (−^10logIC50) values were compared in three independent experiments. A two-tailed Student's t-test was performed to determine whether differences in sensitivity (ΔpIC50) were statistically significant. Caspase 3/7 activity of cancer cells was measured using Caspase-Glo 3/7 Assay kit (cat no. G8093, Promega, Madison USA). Viability of T-ALL cell samples was determined using ATPlite and exposure of 72 hours as described previously."}, "[2]": {"system": "HCT 116 colon carcinoma cell line", "conditions": "three day cell proliferation assay; cited from earlier work"}, "[3]": {"system": "post-tetraploid HPT2 cells", "assay": "Cell proliferation assay, post-tetraploid HPT2", "format": "cell-based, human", "conditions": "HPT2, five days", "experimental": "(§2) Cancer cell lines and hTERT-RPE1 retinal pigment epithelial cells were purchased from the American Type Culture Collection (ATCC) (Manassas, VA, U.S.A.) from 2011 to 2014 [41] and cultured in ATCC-recommended media. All experiments were carried out within nine passages of the original vials from ATCC who authenticated the cancer cell lines by short tandem repeat analysis. We verified the mutant status of seven frequently mutated cancer genes (i.e., BRAF, CDKN2A, CTNNB1, EGFR, KRAS, PIK3CA and TP53) by full exome or targeted sequencing. Sequencing results were compared to COSMIC version 75 of the Genomics of Drug Sensitivity in Cancer data base and provided additional authentication of the identity of the cell lines. The isolation and characterization of post-tetraploid clones from HCT 116 has been described previously. The mutation status of the CDKN2A, CTNNB1, KRAS and PIK3CA genes were confirmed by sequence analysis in both the HCT 116 parental cell line and post-tetraploid clones. All experiments were carried out within nine passages of the original cell stocks that were transferred from the Max Planck Institute of Biochemistry (Martinsried, Germany) to Netherlands Translational Research Center.\nas §1"}, "[4]": {"system": "OVCAR-3 ovary adenocarcinoma cell line", "conditions": "three day cell proliferation assay; cited from earlier work"}, "[5]": {"system": "post-tetraploid HPT4 cells", "assay": "Cell proliferation assay, post-tetraploid HPT4", "format": "cell-based, human", "conditions": "HPT4, five days", "experimental": "as §2, §1"}, "[6]": {"system": "caspase 3/7 in HCT 116, HPT1, HPT2 and HPT4 cells", "assay": "Caspase 3/7 activity assay", "format": "cell-based, human", "conditions": "316 nM, three days, parental line and HPT1, HPT2, HPT4", "experimental": "as §1"}, "[7]": {"system": "post-tetraploid HPT1 cells", "assay": "Cell proliferation assay, post-tetraploid HPT1", "format": "cell-based, human", "conditions": "HPT1, five days", "experimental": "as §2, §1"}, "[8]": {"system": "HCT 116 colon carcinoma cell line", "assay": "Cell proliferation assay (ATPlite), HCT 116", "format": "cell-based, human", "experimental": "as §1"}, "[9]": {"system": "pediatric T-ALL patient cell samples", "assay": "Viability assays with T-ALL patient samples", "format": "cell-based, human", "conditions": "read-out: IC50", "experimental": "Written informed consent was obtained from the parents or legal guardians of each T-ALL patient to use excess diagnostic material for research purposes. The study was performed in accordance with the Institutional Review Board of the Erasmus Medical Center Rotterdam (The Netherlands) and in accordance with the Declaration of Helsinki. Leukemic cells were harvested from blood or bone marrow samples and were enriched to ≥ 90% purity.\nas §1"}, "[10]": {"system": "MG-63 osteosarcoma cell line", "assay": "Cell proliferation assay (ATPlite), MG-63", "format": "cell-based, human", "conditions": "5 day proliferation assay", "experimental": "as §1"}, "[11]": {"system": "A-172 glioblastoma cell line", "assay": "Cell proliferation assay (ATPlite), A-172", "format": "cell-based, human", "conditions": "5 day proliferation assay", "experimental": "as §1"}, "[12]": {"system": "66 cancer cell lines (44 cell lines)", "parameters": "method as in earlier work", "conditions": "cited from earlier work"}, "[13]": {"system": "MG-63 osteosarcoma cell line", "conditions": "three day cell proliferation assay; cited from earlier work"}, "[14]": {"system": "LoVo colorectal adenocarcinoma cell line", "assay": "Cell proliferation assay (ATPlite), LoVo", "format": "cell-based, human", "conditions": "5 day proliferation assay", "experimental": "as §1"}, "[15]": {"system": "HCT 116, HPT1, HPT2 and HPT4 cells", "assay": "Time-lapse microscopy, HCT 116 and post-tetraploid clones", "format": "cell-based, human", "conditions": "100 nM, post-tetraploid clones and parental cell line", "experimental": "HCT 116 diploid and tetraploids stably expressed green fluorescent protein-tagged histone 2B (H2B-GFP). All other cell lines were pre-incubated with SiR-DNA (Spirochrome, Switzerland) in order to visualize DNA. Cells were cultured in Leibovitz L15 CO2-independent cell culture medium in 6-well glass bottom chamber (LabTek Corp., Australia) and synchronized by treatment with 2 mM thymidine. After 24 hours of synchronization, and 4 hours before the start of the imaging experiment, medium was replaced by medium without thymidine. […] Image Z-stacks were acquired with 3-μm intervals using a sCMOS camera (DeltaVision RT; Applied Precision, GE Healthcare, Issaquah, WA) and processed using ImageJ software (NIH, Bethesda, MD, USA). Chromosome mis-segregation phenotypes co-occurred and many combinations existed. For clarity, all the events were scored and included: more than two phenotypes, mitotic slippage, DNA bridge, micro-nuclei and multipolar spindle."}, "[16]": {"conditions": "geometric average of three experiments"}}, "note": "Where “and” joins values, the source holds several entries; their conditions need not be identical. Equal values may be shown once. Read-outs that look alike come from different tables or passages of the source."}
{"smiles": "CCc1cccc(CC)c1NC(=O)c1ccn2c1CCc1cnc(Nc3ccc(N4CCN(C)CC4)cc3OC)nc1-2", "note": "[NTRC 0066-0]", "values": [{"measurement": "IC50", "setting": "[1]", "result": 268, "unit": "nM"}, {"measurement": "IC50", "setting": "[2]", "result": 37, "unit": "nM"}, {"measurement": "Efficacy (%)", "setting": "[3]; average of three experiments", "result": 36, "unit": "%"}, {"measurement": "IC50", "setting": "[3]; [16]", "result": 44, "unit": "nM"}, {"measurement": "IC50", "setting": "[4]", "result": "897 nM and 872 nM"}, {"measurement": "Efficacy (%)", "setting": "[5]; average of three experiments", "result": 48, "unit": "%"}, {"measurement": "IC50", "setting": "[5]; [16]", "result": 44, "unit": "nM"}, {"measurement": "caspase 3/7 activity", "setting": "[6]", "result": "induced caspase 3/7 activity"}, {"measurement": "Efficacy (%)", "setting": "[7]; average of three experiments", "result": 59, "unit": "%"}, {"measurement": "IC50", "setting": "[7]; [16]", "result": 40, "unit": "nM"}, {"measurement": "IC50", "setting": "[8]; 5 day proliferation assay, HCT 116 (Suppl. Table 1)", "result": 41, "unit": "nM"}, {"measurement": "Eff. (%)", "setting": "[8]; HCT 116, five days, maximum inhibitory effect, average of three experiments", "result": 80, "unit": "%"}, {"measurement": "IC50", "setting": "[8]; HCT 116 near-diploid, five days, geometric average of three experiments (Suppl. Table 2A)", "result": 44, "unit": "nM"}, {"measurement": "IC50", "setting": "[9]; all ten T-ALL patient samples, three days", "result": "≥ 5000", "unit": "nM"}, {"measurement": "IC50", "setting": "[9]; patient sample 491, three-day assay", "result": 5000, "unit": "nM"}, {"measurement": "IC50", "setting": "[9]; patient sample 1033, three-day assay", "result": 5100, "unit": "nM"}, {"measurement": "IC50", "setting": "[9]; patient sample 1816, three-day assay", "result": 8100, "unit": "nM"}, {"measurement": "IC50", "setting": "[9]; patient sample 2323, three-day assay", "result": 7100, "unit": "nM"}, {"measurement": "IC50", "setting": "[9]; patient sample 3594, three-day assay", "result": 4800, "unit": "nM"}, {"measurement": "IC50", "setting": "[9]; patient sample 3852, three-day assay", "result": 4900, "unit": "nM"}, {"measurement": "IC50", "setting": "[9]; patient sample 4023, three-day assay", "result": 5400, "unit": "nM"}, {"measurement": "IC50", "setting": "[9]; patient sample 4126, three-day assay", "result": 9200, "unit": "nM"}, {"measurement": "IC50", "setting": "[9]; patient sample 4992, three-day assay", "result": 4900, "unit": "nM"}, {"measurement": "IC50", "setting": "[9]; patient sample 10110, three-day assay", "result": 4500, "unit": "nM"}, {"measurement": "IC50", "setting": "[10]", "result": 260, "unit": "nM"}, {"measurement": "IC50", "setting": "[11]", "result": 34, "unit": "nM"}, {"measurement": "IC50", "setting": "[12]; 3 days, geometric average in 44 cell lines", "result": 67, "unit": "nM"}, {"measurement": "IC50", "setting": "[12]; 5 days, geometric average in 66 cancer cell lines", "result": 98, "unit": "nM"}, {"measurement": "IC50", "setting": "[13]", "result": 135, "unit": "nM"}, {"measurement": "IC50", "setting": "[14]", "result": 35, "unit": "nM"}, {"measurement": "time-in-mitosis", "setting": "[15]", "result": 20, "unit": "min"}]}
